Test: Safety and tolerability in the essential tremor clinical study
Type: in vivo, human
Conditions: 20 mg then 40 mg once a day, 14 days (formulation 5), emerging data

SMILES: CC(C)(C)NC(=O)CN1CCC(CNC(=O)c2cc(F)cc(Cl)c2)CC1 [compound of formula (I)]
- tolerability: well tolerated

Source: patent US12077502B2, “Formulations of T-type calcium channel modulators and methods of use thereof” (PRAXIS PRECISION MEDICINES, INC., priority 2019, dated 2024)
